Source: patent US12350247B2, “Use of APE1/Ref-1 inhibitors for treatment of retinal diseases” (Indiana University Research and Technology Corporation, priority 2017, dated 2025)
Where two headings read alike, the source gives them in different places.

Experiments:
[1] = tested on: patient-derived PDAC cell lines (10.05, Pa02C, Pa03C); assay: SLC-0111 efficacy in PDAC cell lines under hypoxic conditions; assay type: cell-based; conditions: Homo sapiens, all three patient-derived PDAC cell lines, 0.2% O2, read-out: LC50 during hypoxia exposure
Description: The efficacy of SLC-0111, a CA9 inhibitor that has recently completed a Phase I clinical trial, was evaluated in different PDAC cell lines under hypoxic conditions for comparison.

CAFs (CAF19 cells) = assay: 3D spheroid co-culture, CAF signal (green channel); conditions: read-out: LC50, 3D Cultures, CAFs
Panc10.05 [2] = assay: Monolayer cytotoxicity under hypoxia (alamarBlue); assay type: cell-based
Description: (§1) To determine target selectivity, analogs of APX3330, APX2009 and APX2014, and an analog of SLC-0111, FC12-531A, were used.

Pa03C [3] = assay: Monolayer cytotoxicity under hypoxia (alamarBlue); assay type: cell-based; conditions: N = 3, read-out: LC50 (the source's name)
Description: as §1

Pa03C [4] = assay: 3D tumor spheroid culture growth (fluorescence intensity); conditions: read-out: LC50; 3D Cultures, Tumor Alone, Pa03C, D12 curves
Panc10.05 [5] = assay: as above; conditions: read-out: LC50; 3D Cultures, Tumor Alone, Panc10.05, D12 curves
10.05 cells = assay: Intracellular pH assay (pHrodo Red AM) in hypoxic 10.05 cells; assay type: cell-based, human; conditions: 0.2% O2 48 hrs; up to 50 μM APX3330, 100 μM SLC-0111; 8 APX2009, 5 μM APX2014
Description: Therefore, the APX3330 analogs, APX2009 and APX2014, were used to determine whether APE1/Ref-1 redox inhibition alone can shift intracellular pH in hypoxic PDAC cells given a sufficiently potent inhibitor.

PDAC cells and CAFs = assay: 3D co-culture cytotoxicity, Ref-1 inhibition with docetaxel or trametinib; assay type: cell-based
Description: Standard 3D co-culture assays as prepared in Arpin, C. et al., Mol Cancer Ther 15, 794-805 (2016); Logsdon, P. et al., Mol Cancer Ther 15, 2722-2732 (2016); Cardoso, A. et al., PloS one 7, e4742 (2012); and Kelley, M. et al., The Journal of pharmacology and experimental therapeutics 359, 300-309 (2016) were used to evaluate the cytotoxicity of the combinations on tumor cells as well as cancer-associated fibroblasts.

[6] = tested on: patient-derived Pa03C tumors with CAFs; assay: Flank co-culture model of PDAC, APX3330 and Ruxolitinib; assay type: in vivo, mice; conditions: treatment alone, 50 mg/kg, day 28
Description: Treatment of the implanted tumors started on day 11 post implant. Particularly, the co-cultures implanted included 2.5×10^6 tumor cells +/−5 ×10^6 CAFs, providing a 1:2 ratio of tumor cell to CAF. […] The mice were then administered either 50 mg/kg APX3330 BID in 4% Cr:EtOH, 50 mg/kg Rux SID pm in 4% Cr:EtOH, or combinations of the agents. Treatment schedule consisted of treating for 5 days and then giving 2 days off treatment until the tumors reached an average size of 2000 mm^3.

Panc10.05 [7] = tested on: Panc10.05
Pa03C [8] = tested on: Pa03C
CA9 [9] = assay: Hypoxia-induced CA9 mRNA and protein levels in 10.05 monolayer cells; assay type: cell-based, human; conditions: 10.05 cells, 0.2% O2 for 24 hours
Description: (§2) Western Blot Analysis: Immunoblotting was performed using antibodies for APE1/Ref-1 (Novus Biologicals; Littleton, CO), CA9 (Santa Cruz; Dallas, Texas), Actin (NeoMarkers; Fremont, CA), and Vinculin (Sigma; St. Louis, MO).
The comparative Ct method was used to quantitate mRNA levels using RPLP0 and B2M as reference genes. The primers for CA9, RPLP0, and B2M are commercially available (Applied Biosystems). Experiments were performed in triplicate for each sample.

[10] = tested on: human carcinoma colon cell line HCT-116; assay: Alamar blue cytotoxicity combination assay (CalcuSyn); assay type: cell-based; conditions: only one APX2014 dosage (12.5 uM), spiked with 75 uM CPI-613
Description: HTC-116 (Yunhua Liu) was seeded in a 96-well tissue culture plate at 2000 cells/well in DMEM+10% FBS and grown overnight at 37° C., 5% CO2. Drug Media DMEM+5% FBS was added at dosages of APX3330 (Apexian) in a 5-point spread from 75 uM to 6.3 uM and spiked with CPI-613 (Apexbio Technology) at 75 uM, or 50 uM, or alone for single agent. Cells were incubated for 72 hours at 37° C., 5% CO2. Media was exchanged with DMEM+5% FBS+10% Alamar blue fluorescent cell viability indicator (INVITROGEN™) and incubated 4 hours at 37° C., 5% CO2 and then read on a fluorescent reader (SYNERGY™ H4 BioTek). […] depicts Chou-Talalay Index (CI) of dose combinations (CalcuSyn). FIG. 32E depicts synergistic drug combinations (CalcuSyn) of APX3330 spiked with 50 uM CPI-613 or 75 uM CPI-613. […] Data shown is the average of 3 separate cytotoxicity assays; each assay normalized to media only control.
HTC-116 (Yunhua Liu) was seeded in a 96-well tissue culture plate at 2000 cells/well in DMEM+10% FBS and grown overnight at 37° C., 5% CO2. Drug Media DMEM+5% FBS was added at dosages of APX3330 (Apexian) from 100 uM to 0.4 uM in a 10-point spread and spiked with CPI-613 (Apexbio Technology) at 100 uM, or 75 uM, or alone for single agent. Cells were incubated for 72 hours at 37° C., 5% CO2. Media was exchanged with DMEM+5% FBS+10% Alamar blue fluorescent cell viability indicator (INVITROGEN™) and incubated 4 hours at 37° C., 5% CO2 and then read on a fluorescent reader (SYNERGY™ H4 BioTek). […] FIG. 33D depicts Chou-Talalay Index (CI) of dose combinations (CalcuSyn). FIG. 33E depicts synergistic drug combinations (CalcuSyn) of APX3330 spiked with 100 uM CPI-613 or 75 uM CPI-613. […] Data shown is the average of 3 separate cytotoxicity assays; each assay normalized to media only control.
HTC-116 (Yunhua Liu) was seeded in a 96-well tissue culture plate at 2000 cells/well in DMEM+10% FBS and grown overnight at 37° C., 5% CO2. Drug Media DMEM+5% FBS was added at dosages of APX2014 (Apexian) in a 5-point spread from 25 uM to 1.6 uM and spiked with CPI-613 (Apexbio Technology) at 75 uM, or 50 uM, or alone for single agent. Cells were incubated for 72 hours at 37° C., 5% CO2. Media was exchanged with DMEM+5% FBS+10% Alamar blue fluorescent cell viability indicator (INVITROGEN™) and incubated 4 hours at 37° C., 5% CO2 and then read on a fluorescent reader (SYNERGY™ H4 BioTek). […] FIG. 34D depicts Chou-Talalay Index (CI) of dose combinations (CalcuSyn). FIG. 34E depicts synergistic drug combinations (CalcuSyn) of APX2014 spiked with 50 uM CPI-613 or 75 uM CPI-613. Drug combination synergy could not be ascertained at APX2014 dosages when spiked with 50 uM CPI-613. […] Data shown is the average of 3 separate cytotoxicity assays; each assay normalized to media only control.
HTC-116 (Yunhua Liu) was seeded in a 96-well tissue culture plate at 2000 cells/well in DMEM+10% FBS and grown overnight at 37° C., 5% CO2. Drug Media DMEM+5% FBS was added at dosages of APX3330 (Apexian) from 100 uM to 0.4 uM in a 10-point spread and spiked with CB-839 (Sigma-Aldrich) at 1000 nM, or 500 nM, or alone for single agent. Cells were incubated for 72 hours at 37° C., 5% CO2. Media was exchanged with DMEM+5% FBS+10% Alamar blue fluorescent cell viability indicator (INVITROGEN™) and incubated 4 hours at 37° C., 5% CO2 and then read on a fluorescent reader (SYNERGY™ H4 BioTek). FIG. 35A depicts APX3330 and CB-839 single agent effects. FIG. 35B depicts APX3330 and CB-839 synergistic combo effects. […] FIG. 35E depicts synergistic drug combinations (CalcuSyn) of APX3330 spiked with 1000 nM CB-839 or 500 nM CB-839 (5-pt only). […] Data shown is the average of 3 separate cytotoxicity assays; each assay normalized to media only control.

CA9 [11] = assay: CA9 protein expression in 10.05 3D tumor spheroids (Western blot); assay type: cell-based, human; conditions: 3D spheroid cultures, 12 days, treated on days 4 and 8
Description: as §2
The effect of APE1/Ref-1 redox inhibition on CA9 protein expression was also measured in 3D tumor spheroids.

[12] = tested on: mouse colon cell line MC-38; assay: Alamar blue cytotoxicity assay; assay type: cell-based; conditions: single agent, 72 hours
Description: MC-38 cells (Yunhua Liu) were seeded in a 96-well tissue culture plate at 2000 cells/well in DMEM+10% FBS and grown overnight at 37° C., 5% CO2. […] Cells were incubated for 72 hours at 37° C., 5% CO2. Media was exchanged with DMEM+5% FBS+10% Alamar blue fluorescent cell viability indicator (Invitrogen™) and incubated 4 hours at 37° C., 5% CO2 and then read on a fluorescent reader (Synergy™ H4 BioTek). […] Data shown is the average of 3 separate cytotoxicity assays; each assay normalized to media only control.

[13] = tested on: Pa03C and Panc10.05 tumor cells; assay: 3D spheroid / co-culture model of pancreatic cancer (both patient lines); conditions: for single agent efficacy on 3D spheroid growth: treated on days 4 and 8, FIG. 17
Description: Pa03C cells were plated into 3D cultures alone or with CAF19 cells.
Pa03C and Panc10.05 tumor cells were grown in 3D cultures in the presence of CAFs. Spheroids were treated with either single agents, vehicle (DMSO) or combination of targeted agents on days 4 and 8 (black arrows), and the intensity of tumor (red) and CAF (green) were quantified as described in Example 7 every 3-4 days in culture.

[14] = tested on: bladder cell line BLCAb001; assay: 96-hour viability assay, APX2014 with cisplatin; assay type: cell-based; conditions: APX2014 doses of 6 mM-3 mM in combination with cisplatin
Description: The BLCAb001 (cisplatin resistant) cell line was treated with increasing concentrations of APX2014 and cisplatin as single agents and in combination and assayed in a 96-hour viability assay. The concentrations of APX2014 range from 6 mM-0.38 mM in combination with the indicated cisplatin doses (FIG. 36A). […] The concentrations of Cisplatin as a single agent range from 2.5 mM-0.04 mM (FIG. 36B).

[15] = co-culture with Pa03C, D12 curves
[16] = co-culture with Panc10.05, D12 curves
[17] = Homo sapiens, Panc1005, Panc10.05, N = 3, read-out: LC50 (the source's name)

Structure (SMILES) | CC50 (CAFs (CAF19 cells); [15]) | CC50 (CAFs (CAF19 cells); [16]) | CC50 (Panc10.05 [2]; [17]) | CC50 (Pa03C [3]; Homo sapiens) | CC50 (Pa03C [4]) | CC50 (Panc10.05 [5]) | effect on intracellular pH as single agent (10.05 cells) | cytotoxicity in combination with Ref-1 inhibition (PDAC cells and CAFs) | fold less required vs. APX3330 to decrease hypoxia-induced CA9 mRNA and protein levels (CA9 [9]) | fold less of the concentration compared to APX3330 to attenuate CA9 expression (CA9 [11]) | single agent efficacy on 3D spheroid growth [13] | further results
NS(=O)(=O)c1ccc(NC(=O)Nc2ccc(F)cc2)cc1 [SLC-0111, reference compound] | 97 µM | 98.2 µM | 63.9 µM | 90.8 µM | 51.9 µM | 64 µM | did not affect | – | – | – | – | CC50 [1]: < 100 µM
CC(=O)O[C@@]12CO[C@@H]1C[C@H](O)[C@@]1(C)C(=O)[C@H](O)C3=C(C)[C@@H](OC(=O)[C@H](O)[C@@H](NC(=O)OC(C)(C)C)c4ccccc4)C[C@@](O)([C@@H](OC(=O)c4ccccc4)[C@H]21)C3(C)C [Docetaxel] | – | – | – | – | – | – | – | more effective than either agent alone | – | – | – | –
N#CC[C@H](C1CCCC1)n1cc(-c2ncnc3[nH]ccc23)cn1 [Rux, Ruxolitinib, reference compound] | – | – | – | – | – | – | – | – | – | – | – | average tumor size [6]: 1750 mm³
CCC/C(=C\C1=C(OC)C(=O)c2ccccc2C1=O)C(=O)NOC [APX2014, (2E)-2-[(3-methoxy-1,4-dioxo-1,4-dihydronapthalen-2-yl)methylidene]-N-methoxypentanamide] | – | – | – | – | – | – | decreased intracellular pH | – | 10 fold | 10 fold | as effective as APX3330 | CC50 (Panc10.05 [7]): 0.3 µM; CC50 (Pa03C [8]): 1.1 µM; drug combination synergy (Chou-Talalay, CalcuSyn) [10]: Synergy was observed; CC50 (Panc10.05 [2]; Panc10.05, N = 3, read-out: LC50 (the source's name)): 1.3 µM; CC50 (Pa03C [3]): 3.5 µM; EC10 [12]: 2.0 µM; EC30 [12]: 3.0 µM; combination index [14]: > 1.0
CCC/C(=C\C1=C(OC)C(=O)c2ccccc2C1=O)C(=O)N(CC)CC [APX2009, (2E)-2-[(3-methoxy-1,4-dioxo-1,4-dihydronaphthalen-2-yl)methylidene]-N,N-diethylpentanamide] | 13.1 µM | 14.1 µM | 4.9 µM | 6.7 µM | 6.9 µM | 9.4 µM | decreased intracellular pH | – | 10 fold | 10 fold | as effective as APX3330 | tumor killing in combination with napabucasin ([13]; 3D spheroid model (tumor and CAF)): synergistic tumor killing effect
CC(=O)Nc1cccc(-n2c(=O)n(C3CC3)c(=O)c3c(Nc4ccc(I)cc4F)n(C)c(=O)c(C)c32)c1 [Trametinib] | – | – | – | – | – | – | – | more effective than either agent alone | – | – | – | –
